Conditions: pH 7

## poly(ethylene glycol) chloroethyl sulfone [PEG chloroethyl sulfone]
  stability in water, NMR after extraction: stable
